Reference: patent US6737383B1, “Herbicidal oxadiazolidines” (priority 1999, dated 2004)

Columns and labels:
[1] = test system: bedstraw; assay: Test B pre/postemergence bedstraw; type: in vivo, Galium aparine; conditions: Preemergence
In short: (§1)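 Response is a visual 0-to-10 score relative to untreated plants, where 0 means no effect and 10 means complete control, taken twelve to sixteen days after application. Treatments went onto soil at planting and onto foliage of 1- to 4-leaf plants, using a surfactant-containing non-phytotoxic solvent.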

[2] = test system: blackgrass; assay: Test B pre/postemergence blackgrass; type: in vivo, Alopecurus myosuroides
In short: as §1

[3] = test system: surinam grass; assay: Test B pre/postemergence surinam grass; type: in vivo, Brachiaria decumbens
In short: as §1

[4] = test system: cocklebur; assay: Test B pre/postemergence cocklebur; type: in vivo, Xanthium strumarium
In short: as §1

[5] = test system: giant foxtail; assay: Test B pre/postemergence giant foxtail; type: in vivo, Setaria faberii
In short: as §1

[6] = test system: morningglory; assay: Test B pre/postemergence morningglory; type: in vivo, Ipomoea hederacea
In short: as §1

[7] = test system: pigweed; assay: Test B pre/postemergence pigweed; type: in vivo, Amaranthus retroflexus
In short: as §1

[8] = test system: rape; assay: Test B pre/postemergence rape; type: in vivo, Brassica napus
In short: as §1

[9] = test system: soybean; assay: Test B pre/postemergence soybean; type: in vivo, Glycine max
In short: as §1

[10] = test system: sugar beet; assay: Test B pre/postemergence sugar beet; type: in vivo, Beta vulgaris; conditions: for Plant response rating, Sugarbeets: Rate 250 g/ha
In short: as §1

[11] = test system: wheat; assay: Test B pre/postemergence wheat; type: in vivo, Triticum aestivum; conditions: for Plant response rating, Wheat: Rate 250 g/ha
In short: as §1

[12] = test system: wild oat; assay: Test B pre/postemergence wild oat; type: in vivo, Avena fatua; conditions: for Plant response rating, Wild oats: Rate 250 g/ha
In short: as §1

[13] = test system: purple nutsedge; assay: Test B pre/postemergence purple nutsedge; type: in vivo, Cyperus rotundus
In short: as §1

[14] = Postemergence, Rate 62 g/ha, scale 0 to 10, 0 is no effect, 10 is complete control
[15] = Postemergence, Rate 125 g/ha, scale of 0 to 10 where 0 is no effect and 10 is complete control
[16] = Postemergence, Rate 250 g/ha, scale 0 to 10, 0 no effect, 10 complete control
[17] = Preemergence, Rate 62 g/ha, scale 0 to 10 (0 no effect, 10 complete control)
[18] = Preemergence, Rate 125 g/ha, scale 0 to 10 (0 no effect, 10 complete control)
[19] = Preemergence, Rate 250 g/ha, scale of 0 to 10 where 0 is no effect and 10 is complete control
[20] = Preemergence, Rate 500 g/ha, scale 0 (no effect) to 10 (complete control)
[21] = Rate 500 g/ha, Postemergence, scale 0 to 10, 0 no effect, 10 complete control
[22] = Rate 250 g/ha, Postemergence, scale 0 to 10, 0 is no effect, 10 is complete control
[23] = Preemergence, Rate 125 g/ha, 0 is no effect, 10 is complete control
[24] = Preemergence, scale of 0 to 10 where 0 is no effect and 10 is complete control
[25] = Postemergence, scale 0 to 10, 0 is no effect, 10 is complete control

CCCn1c(=O)on(C(=O)N(c2ccc(F)cc2)C(C)C)c1=O [Compound 91]
Bedstraw plant response rating ([1]; Rate 62 g/ha, scale 0 to 10 (0 no effect, 10 complete control)): 0
Plant response rating, Bedstraw ([1]; Rate 125 g/ha, scale 0 to 10 (0 no effect, 10 complete control)): 1
Plant response rating, Bedstraw ([1]; Rate 250 g/ha, scale of 0 to 10 where 0 is no effect and 10 is complete control): 5
Bedstraw plant response rating ([1]; Rate 500 g/ha, scale 0 (no effect) to 10 (complete control)): 8
Blackgrass plant response rating [2, 14]: 8
Blackgrass plant response rating [2, 15]: 8
Blackgrass plant response rating [2, 16]: 8
Blackgrass plant response rating [2, 17]: 10
Plant response rating, Blackgrass [2, 18]: 10
Plant response rating, Blackgrass [2, 19]: 10
Blackgrass plant response rating [2, 20]: 10
Blackgrass plant response rating [2, 21]: 8
B. signalgrass plant response rating [3, 14]: 4
B. signalgrass plant response rating [3, 16]: 8
B. signalgrass plant response rating [3, 17]: 7
Plant response rating, B. signalgrass [3, 18]: 10
Plant response rating, B. signalgrass [3, 19]: 10
B. signalgrass plant response rating [3, 20]: 10
B. signalgrass plant response rating ([3]; Rate 125 g/ha, Postemergence, scale 0 to 10, 0 no effect, 10 complete control): 4
B. signalgrass plant response rating ([3]; Rate 500 g/ha, Postemergence, scale of 0 to 10 where 0 is no effect and 10 is complete control): 8
Cocklebur plant response rating [4, 14]: 3
Cocklebur plant response rating [4, 15]: 3
Cocklebur plant response rating [4, 16]: 4
Cocklebur plant response rating [4, 17]: 0
Plant response rating, Cocklebur [4, 18]: 0
Cocklebur plant response rating [4, 20]: 3
Cocklebur plant response rating [4, 21]: 4
Giant foxtail plant response rating [5, 14]: 8
Giant foxtail plant response rating [5, 15]: 8
Giant foxtail plant response rating [5, 16]: 8
Giant foxtail plant response rating [5, 17]: 10
Plant response rating, Giant foxtail [5, 18]: 10
Plant response rating, Giant foxtail [5, 19]: 10
Giant foxtail plant response rating [5, 20]: 10
Giant foxtail plant response rating [5, 21]: 9
Morningglory plant response rating [6, 14]: 7
Morningglory plant response rating [6, 15]: 7
Morningglory plant response rating [6, 16]: 8
Morningglory plant response rating [6, 17]: 0
Plant response rating, Morningglory [6, 18]: 0
Plant response rating, Morningglory [6, 19]: 4
Morningglory plant response rating [6, 20]: 6
Morningglory plant response rating [6, 21]: 9
Redroot pigweed plant response rating [7, 14]: 1
Redroot pigweed plant response rating [7, 15]: 4
Redroot pigweed plant response rating [7, 17]: 6
Plant response rating, Redroot pigweed [7, 18]: 9
Plant response rating, Redroot pigweed [7, 19]: 10
Redroot pigweed plant response rating [7, 20]: 10
Plant response rating, Redroot pigweed [7, 22]: 6
Redroot pigweed plant response rating [7, 21]: 8
Rape plant response rating [8, 14]: 2
Rape plant response rating [8, 15]: 3
Rape plant response rating [8, 16]: 4
Rape plant response rating [8, 17]: 7
Plant response rating, Rape [8, 18]: 8
Plant response rating, Rape [8, 19]: 10
Rape plant response rating [8, 20]: 10
Rape plant response rating [8, 21]: 10
Soybean plant response rating [9, 14]: 3
Soybean plant response rating [9, 15]: 3
Soybean plant response rating [9, 17]: 0
Plant response rating, Soybean [9, 18]: 0
Plant response rating, Soybean [9, 19]: 4
Soybean plant response rating [9, 20]: 7
Plant response rating, Soybean [9, 22]: 4
Soybean plant response rating [9, 21]: 5
Sugarbeets plant response rating [10, 14]: 3
Sugarbeets plant response rating [10, 15]: 6
Sugarbeets plant response rating [10, 17]: 7
Sugarbeets plant response rating (0 to 10 scale) [10, 23]: 7
Plant response rating, Sugarbeets [10, 24]: 9
Sugarbeets plant response rating [10, 20]: 10
Plant response rating, Sugarbeets [10, 25]: 6
Sugarbeets plant response rating [10, 21]: 6
Wheat plant response rating [11, 14]: 1
Wheat plant response rating [11, 15]: 1
Wheat plant response rating [11, 17]: 3
Wheat plant response rating (0 to 10 scale) [11, 23]: 4
Plant response rating, Wheat [11, 24]: 4
Wheat plant response rating [11, 20]: 6
Plant response rating, Wheat [11, 25]: 4
Wheat plant response rating [11, 21]: 6
Wild oats plant response rating [12, 14]: 1
Wild oats plant response rating [12, 15]: 2
Wild oats plant response rating [12, 17]: 8
Wild oats plant response rating (0 to 10 scale) [12, 23]: 9
Plant response rating, Wild oats [12, 24]: 10
Wild oats plant response rating [12, 20]: 10
Plant response rating, Wild oats [12, 25]: 3
Wild oats plant response rating [12, 21]: 5
Nutsedge plant response rating [13, 14]: 0
Nutsedge plant response rating [13, 15]: 0
Nutsedge plant response rating [13, 16]: 0
Nutsedge plant response rating [13, 17]: 0
Plant response rating, Nutsedge [13, 18]: 0
Plant response rating, Nutsedge [13, 19]: 0
Nutsedge plant response rating [13, 21]: 0
